Among the data in patent US7709471B2, “Compounds” (AstraZeneca AB, priority 2006, dated 2010) are IC50 values, retold here.

One assay concerns the target recombinant Plk1 (Homo sapiens, UniProt P53350). Put plainly: In Vitro Plk1 Enzyme Assay (SPA, GST-Cdc25C phosphorylation). The format is biochemical. The conditions noted are these: ATP 64 nM, 90 minutes, read-out: IC50 (Plk1 enzyme inhibition).
Assay [1] deals with human colon tumour cell line HT29. Put plainly: Cellular Assay (phosphohistone H3 Ser10 mitotic marker, HT29). Type of assay: cell-based. The conditions noted are these: HT-29, 24 h, HT29 cells, read-out: IC50 (cellular assay, phosphohistone H3).
Procedure: Chromosome condensation in mitosis is accompanied by phosphorylation of histone H3 on serine 10.
After 24 hours, cells were fixed in 3.7% (v/v) formaldehyde then permeabilised and blocked for 10 minutes in 100 μl 0.5% (v/v) Triton X-100, 1% (w/v) bovine serum albumin (BSA) in phosphate buffered saline (PBS). […] The raw assay data were analysed by non-linear regression analysis and used to determine an IC50 value for each compound.

Chain of recombinant Plk1 (P53350 whole entry): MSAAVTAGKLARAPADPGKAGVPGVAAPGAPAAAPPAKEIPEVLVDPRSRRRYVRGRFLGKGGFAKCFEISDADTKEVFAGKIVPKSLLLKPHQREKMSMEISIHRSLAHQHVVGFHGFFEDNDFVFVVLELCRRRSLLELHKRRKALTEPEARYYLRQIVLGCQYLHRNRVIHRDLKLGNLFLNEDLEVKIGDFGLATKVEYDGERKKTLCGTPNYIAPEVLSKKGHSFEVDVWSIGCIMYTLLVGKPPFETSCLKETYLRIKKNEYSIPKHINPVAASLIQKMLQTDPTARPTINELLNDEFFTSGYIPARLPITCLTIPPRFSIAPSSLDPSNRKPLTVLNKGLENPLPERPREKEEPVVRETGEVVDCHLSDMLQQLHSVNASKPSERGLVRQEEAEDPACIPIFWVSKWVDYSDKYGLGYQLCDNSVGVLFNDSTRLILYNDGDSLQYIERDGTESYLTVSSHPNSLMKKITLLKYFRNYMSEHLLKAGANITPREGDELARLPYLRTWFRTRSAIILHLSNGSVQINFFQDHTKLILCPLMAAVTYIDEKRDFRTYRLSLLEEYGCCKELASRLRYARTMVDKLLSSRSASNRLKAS
Procedure for recombinant Plk1: Reactions were stopped by addition of EDTA (110 mM) and the Cdc25C substrate captured via its GST tag to anti-GST antibody (Molecular Probes, Cat No A-5800) coated Protein A PVT SPA beads (Amersham Biosciences, Catalogue No. RPQ0019; 250 μg/well) in 50 mM HEPES pH7.5 buffer containing 0.05% (w/v) sodium azide and incubated for up to 2 hours, followed by the addition of 20 μl of 4M caesium chloride (final assay concentration of 1M). Plates were then left in the dark overnight before counting on a Packard TopCount NXT.
Radiolabelled phosphorylated substrate is formed in situ as a result of Plk1 mediated phosphorylation. The SPA beads contain a scintillant that can be stimulated to emit light. This stimulation only occurs when a radiolabelled phosphorylated substrate is bound to the surface of the coated SPA bead causing the emission of blue light that can be measured on a scintillation counter. Accordingly, the extent of Plk1 mediated Cdc25C phosphorylation was assessed. The raw assay data were then analysed by non-linear regression analysis and Plk1 enzyme inhibition for a given test compound is expressed as an IC50 value.

`CN1CCC(NC(=O)c2cc(Cl)c(Nc3ncc4c(n3)N(C3CCCC3)CCC(=O)N4C)cc2F)CC1` [Example 322, 5-chloro-4-[(2-cyclopentyl-6-methyl-5-oxo-2,6,9,11-tetrazabicyclo[5.4.0]undeca-7,9,11-trien-10-yl)amino]-2-fluoro-N-(1-methyl-4-piperidyl)benzamide]: the half-maximal inhibitory concentration (IC50) (on recombinant Plk1; in assay [1]) was under 0.3 µM throughout.

Regarding `CCN1CCC(NC(=O)c2cc(Cl)c(Nc3ncc4c(n3)N(C3CCCC3)CCC(=O)N4C)cc2F)CC1` [Example 323, 5-chloro-4-[(2-cyclopentyl-6-methyl-5-oxo-2,6,9,11-tetrazabicyclo[5.4.0]undeca-7,9,11-trien-10-yl)amino]-N-(1-ethyl-4-piperidyl)-2-fluoro-benzamide], the results for the IC50 (at recombinant Plk1; in assay [1]) were under 1 µM and under 0.3 µM, respectively.

As to `CN1CC[C@@H](NC(=O)c2cc(Cl)c(Nc3ncc4c(n3)N(C3CCCC3)CCC(=O)N4C)cc2F)C1` [Example 325, 5-chloro-4-[(2-cyclopentyl-6-methyl-5-oxo-2,6,9,11-tetrazabicyclo[5.4.0]undeca-7,9,11-trien-10-yl)amino]-2-fluoro-N-[(3R)-1-methylpyrrolidin-3-yl]benzamide], the IC50 (at recombinant Plk1; in assay [1]) was under 0.3 µM throughout.

As for `CCN1CC[C@@H](NC(=O)c2ccc(Nc3ncc4c(n3)N(C3CCCC3)CCC(=O)N4C)c(OC)c2)C1` [Example 326, 4-[(2-cyclopentyl-6-methyl-5-oxo-2,6,9,11-tetrazabicyclo[5.4.0]undeca-7,9,11-trien-10-yl)amino]-N-[(3R)-1-ethylpyrrolidin-3-yl]-3-methoxy-benzamide], the IC50 (at recombinant Plk1; in assay [1]) was under 0.3 µM in each case.

As to `CCCN1CC[C@@H](NC(=O)c2ccc(Nc3ncc4c(n3)N(C3CCCC3)CCC(=O)N4C)c(OC)c2)C1` [Example 327, 4-[(2-cyclopentyl-6-methyl-5-oxo-2,6,9,11-tetrazabicyclo[5.4.0]undeca-7,9,11-trien-10-yl)amino]-3-methoxy-N-[(3R)-1-propylpyrrolidin-3-yl]benzamide], the IC50 (on recombinant Plk1; in assay [1]) was under 0.3 µM throughout.

As to `COCCN1CC[C@@H](NC(=O)c2ccc(Nc3ncc4c(n3)N(C3CCCC3)CCC(=O)N4C)c(OC)c2)C1` [Example 328, 4-[(2-cyclopentyl-6-methyl-5-oxo-2,6,9,11-tetrazabicyclo[5.4.0]undeca-7,9,11-trien-10-yl)amino]-3-methoxy-N-[(3R)-1-(2-methoxyethyl)pyrrolidin-3-yl]benzamide], the IC50 (at recombinant Plk1; in assay [1]) was under 0.3 µM in each case.

As to `CCN1CCC(NC(=O)c2ccc(Nc3ncc4c(n3)N(C3CCCC3)CC3(CC3)C(=O)N4C)c(Cl)c2)CC1` [Example 382, 3-chloro-4-(9′-cyclopentyl-5′-methyl-6′-oxo-5′,6′,8′,9′-tetrahydrospiro[cyclopropane-1,7′-pyrimido[5,4-b][1,4]diazepine]-2′-ylamino)-N-(1-ethylpiperidin-4-yl)benzamide], the IC50 (on recombinant Plk1; in assay [1]) was under 0.3 µM each time.

For the compound `CCN1CCC(NC(=O)c2ccc(Nc3ncc4c(n3)N(C3CCCC3)CC3(CC3)C(=O)N4C)c(OC)c2)CC1` [Example 383, 4-(9′-cyclopentyl-5′-methyl-6′-oxo-5′,6′,8′,9′-tetrahydrospiro[cyclopropane-1,7′-pyrimido[5,4-b][1,4]diazepine]-2′-ylamino)-N-(1-ethyl-4-piperidyl)-3-methoxy-benzamide], the half-inhibitory concentration (IC50) on recombinant Plk1 was under 1 µM; in assay [1], under 0.3 µM.

`COc1cc(C(=O)NC2C[C@H]3CCC[C@@H](C2)N3C)ccc1Nc1ncc2c(n1)N(C1CCCC1)CC1(CC1)C(=O)N2C` (stereo partly drawn) [Example 385, 4-(9′-cyclopentyl-5′-methyl-6′-oxo-5′,6′,8′,9′-tetrahydrospiro[cyclopropane-1,7′-pyrimido[5,4-b][1,4]diazepine]-2′-ylamino)-3-methoxy-N-[(1S,5R)-9-methyl-9-azabicyclo[3.3.1]non-7-yl]benzamide]: the IC50 (at recombinant Plk1; in assay [1]) was under 0.3 µM in each case.

Take `COc1cc(C(=O)NCC(C)(C)CN(C)C)ccc1Nc1ncc2c(n1)N(C1CCCC1)CC1(CC1)C(=O)N2C` [Example 386, 4-(9′-cyclopentyl-5′-methyl-6′-oxo-5′,6′,8′,9′-tetrahydrospiro[cyclopropane-1,7′-pyrimido[5,4-b][1,4]diazepine]-2′-ylamino)-N-(3-dimethylamino-2,2-dimethyl-propyl)-3-methoxy-benzamide]: the half-inhibitory concentration (IC50) (on recombinant Plk1; in assay [1]) was under 0.3 µM each time.

As for `COc1cc(C(=O)NCCN(C)C)ccc1Nc1ncc2c(n1)N(C1CCCC1)CC1(CC1)C(=O)N2C` [Example 387, 4-(9′-cyclopentyl-5′-methyl-6′-oxo-5′,6′,8′,9′-tetrahydrospiro[cyclopropane-1,7′-pyrimido[5,4-b][1,4]diazepine]-2′-ylamino)-N-(2-dimethylaminoethyl)-3-methoxy-benzamide], the IC50 (on recombinant Plk1; in assay [1]) was under 0.3 µM in each case.

As to `COc1cc(C(=O)NC2CCN(C)CC2)ccc1Nc1ncc2c(n1)N(C1CCCC1=O)CCC(=O)N2C` (centres unmarked) [Example 410, 3-methoxy-4-[[6-methyl-5-oxo-2-(2-oxocyclopentyl)-2,6,9,11-tetrazabicyclo[5.4.0]undeca-7,9,11-trien-10-yl]amino]-N-(1-methyl-4-piperidyl)benzamide], the figures for the 50% inhibitory concentration (IC50) (on recombinant Plk1; in assay [1]) were under 1 µM and under 30 µM, respectively.

As to `COc1cc(C(=O)NC2CCN(C)CC2)ccc1Nc1ncc2c(n1)N(C1CCCCC1)CC1(CC1)C(=O)N2C` [Example 430, 4-(9′-cyclohexyl-5′-methyl-6′-oxo-5′,6′,8′,9′-tetrahydrospiro[cyclopropane-1,7′-pyrimido[5,4-b][1,4]diazepine]-2′-ylamino)-3-methoxy-N-(1-methyl-4-piperidyl)benzamide], the IC50 (at recombinant Plk1; in assay [1]) was under 0.3 µM throughout.

As for `COc1cc(C(=O)NCCCN(C)C)ccc1Nc1ncc2c(n1)N(C1CCCCC1)CC1(CC1)C(=O)N2C` [Example 431, 4-(9′-cyclohexyl-5′-methyl-6′-oxo-5′,6′,8′,9′-tetrahydrospiro[cyclopropane-1,7′-pyrimido[5,4-b][1,4]diazepine]-2′-ylamino)-N-(3-dimethylaminopropyl)-3-methoxy-benzamide], the 50% inhibitory concentration (IC50) (at recombinant Plk1; in assay [1]) was under 0.3 µM throughout.

For `COc1cc(C(=O)NC2C[C@H]3CCC[C@@H](C2)N3C)ccc1Nc1ncc2c(n1)N(C1CCCCC1)CC1(CC1)C(=O)N2C` (stereo partly drawn) [Example 432, 4-(9′-cyclohexyl-5′-methyl-6′-oxo-5′,6′,8′,9′-tetrahydrospiro[cyclopropane-1,7′-pyrimido[5,4-b][1,4]diazepine]-2′-ylamino)-3-methoxy-N-[(1S,5R)-9-methyl-9-azabicyclo[3.3.1]non-7-yl]benzamide], the IC50 (on recombinant Plk1; in assay [1]) was under 0.3 µM throughout.

Regarding `CCN1CCC(NC(=O)c2ccc(Nc3ncc4c(n3)N(C3CCCCC3)CC3(CC3)C(=O)N4C)c(OC)c2)CC1` [Example 433, 4-(9′-cyclohexyl-5′-methyl-6′-oxo-5′,6′,8′,9′-tetrahydrospiro[cyclopropane-1,7′-pyrimido[5,4-b][1,4]diazepine]-2′-ylamino)-N-(1-ethyl-4-piperidyl)-3-methoxy-benzamide], the IC50 is under 100 µM at recombinant Plk1 and under 0.3 µM in assay [1].

As usually defined, the IC50 is the concentration at which inhibition is half-maximal.
